Test results taken from PMC9822066 (Molecules, 2022).
Counter-ions that a name gives are not always drawn. Like-named read-outs stand apart in the source and are kept apart here.

Key:
human H3R = target: T1, human H3R (Homo sapiens, UniProt Q9Y5N1); experiment: [3H]Nα-methylhistamine radioligand binding assay in HEK293 cells stably expressing hH3R
T1 construct: expressed in transfected cells; host or cells: HEK293
Protocol: Final compounds were tested for their H3R affinity in a radioligand binding assay using [^3H]N^α-methylhistamine as radioligand in HEK293 cells stably expressing hH3R [25]. […] Affinity to hH3R stably expressed in HEK293 cells was evaluated in a radioligand binding assay as described previously. […] The radioactivity was counted in a MicroBeta Trilux counter (PerkinElmer). Data were fitted to a one-site curve-fitting equation with Prism 6 (GraphPad Software, San Diego, CA, USA) and Ki values were calculated from IC50 values (from at least three experiments performed in duplicates) according to the Cheng−Prusoff equation [52].

hMAO B = target: T2, hMAO B (Homo sapiens, UniProt P27338); experiment: Fluorometric MAO assay, hMAO B inhibition; format: biochemical; details: mean ± SEM of two independent experiments, read-out: hMAO B %Inh. at 1 µM
T2 sequence (P27338 1-520): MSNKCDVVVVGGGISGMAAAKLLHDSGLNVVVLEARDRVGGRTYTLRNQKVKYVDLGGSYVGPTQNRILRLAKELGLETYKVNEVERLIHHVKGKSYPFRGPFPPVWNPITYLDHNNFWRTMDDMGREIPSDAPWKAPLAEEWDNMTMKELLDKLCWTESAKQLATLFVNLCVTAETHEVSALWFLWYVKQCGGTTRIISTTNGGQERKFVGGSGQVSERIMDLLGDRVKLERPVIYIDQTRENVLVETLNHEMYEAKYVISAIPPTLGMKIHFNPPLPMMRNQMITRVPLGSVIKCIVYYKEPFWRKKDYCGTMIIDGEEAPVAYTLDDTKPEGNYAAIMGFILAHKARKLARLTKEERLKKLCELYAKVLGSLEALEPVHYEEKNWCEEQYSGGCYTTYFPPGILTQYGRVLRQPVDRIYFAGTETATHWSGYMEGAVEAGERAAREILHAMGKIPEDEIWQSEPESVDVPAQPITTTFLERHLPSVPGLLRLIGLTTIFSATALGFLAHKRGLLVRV

[1] = target: BuChE from equine serum (eqBuChE) (Equus caballus, UniProt P81908); experiment: biochemical; format: biochemical; details: for IC50: mean ± SEM, triplicate independent experiments
BuChE from equine serum (eqBuChE), sequence (P81908 whole entry): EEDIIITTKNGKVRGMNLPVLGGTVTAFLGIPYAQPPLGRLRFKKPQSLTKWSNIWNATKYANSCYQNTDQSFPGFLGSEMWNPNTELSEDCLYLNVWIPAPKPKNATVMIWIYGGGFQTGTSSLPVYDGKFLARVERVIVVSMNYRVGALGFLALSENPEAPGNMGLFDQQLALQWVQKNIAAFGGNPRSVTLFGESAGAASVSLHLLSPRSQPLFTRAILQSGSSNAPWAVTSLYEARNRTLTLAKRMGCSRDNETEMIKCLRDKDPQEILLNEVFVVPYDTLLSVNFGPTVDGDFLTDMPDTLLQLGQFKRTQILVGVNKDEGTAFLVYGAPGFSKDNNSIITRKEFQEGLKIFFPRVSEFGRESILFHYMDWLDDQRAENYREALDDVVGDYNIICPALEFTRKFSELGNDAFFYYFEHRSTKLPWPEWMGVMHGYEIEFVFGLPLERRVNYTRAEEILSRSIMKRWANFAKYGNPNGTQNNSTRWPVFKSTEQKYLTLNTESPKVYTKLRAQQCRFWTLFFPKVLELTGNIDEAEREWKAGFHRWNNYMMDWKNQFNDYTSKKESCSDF

[2] = target: T3, electric eel AChE (eeAChE) (Electrophorus electricus, UniProt O42275); experiment: biochemical; details: for inhibition at 10 µM: read-out: eeAChE % Inh. at 10 µM; for IC50: mean ± SEM, triplicate independent experiments, read-out: eeAChE IC50
T3 construct: purchased Sigma–Aldrich (Steinheim, Germany)
T3 sequence (O42275 24-633): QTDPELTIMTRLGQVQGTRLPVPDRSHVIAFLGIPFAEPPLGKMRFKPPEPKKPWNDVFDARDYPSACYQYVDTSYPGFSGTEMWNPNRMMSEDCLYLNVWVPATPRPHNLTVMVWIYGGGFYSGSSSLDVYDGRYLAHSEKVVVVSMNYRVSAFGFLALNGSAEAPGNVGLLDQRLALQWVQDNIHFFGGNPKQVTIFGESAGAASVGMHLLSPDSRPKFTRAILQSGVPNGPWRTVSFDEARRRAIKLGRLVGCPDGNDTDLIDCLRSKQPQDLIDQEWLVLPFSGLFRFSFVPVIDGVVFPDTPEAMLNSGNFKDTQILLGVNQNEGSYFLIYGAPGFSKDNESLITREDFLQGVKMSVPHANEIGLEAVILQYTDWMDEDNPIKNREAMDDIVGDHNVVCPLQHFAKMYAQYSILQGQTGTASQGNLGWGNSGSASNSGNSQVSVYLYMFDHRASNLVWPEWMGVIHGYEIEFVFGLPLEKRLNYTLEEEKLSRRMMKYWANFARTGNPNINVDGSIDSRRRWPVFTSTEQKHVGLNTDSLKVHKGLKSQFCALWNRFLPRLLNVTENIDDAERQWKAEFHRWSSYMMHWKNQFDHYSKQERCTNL

[3] = mean value within the 95% CI, three repetitions, read-out: hH3R Ki

T1 sequence (Q9Y5N1 whole entry): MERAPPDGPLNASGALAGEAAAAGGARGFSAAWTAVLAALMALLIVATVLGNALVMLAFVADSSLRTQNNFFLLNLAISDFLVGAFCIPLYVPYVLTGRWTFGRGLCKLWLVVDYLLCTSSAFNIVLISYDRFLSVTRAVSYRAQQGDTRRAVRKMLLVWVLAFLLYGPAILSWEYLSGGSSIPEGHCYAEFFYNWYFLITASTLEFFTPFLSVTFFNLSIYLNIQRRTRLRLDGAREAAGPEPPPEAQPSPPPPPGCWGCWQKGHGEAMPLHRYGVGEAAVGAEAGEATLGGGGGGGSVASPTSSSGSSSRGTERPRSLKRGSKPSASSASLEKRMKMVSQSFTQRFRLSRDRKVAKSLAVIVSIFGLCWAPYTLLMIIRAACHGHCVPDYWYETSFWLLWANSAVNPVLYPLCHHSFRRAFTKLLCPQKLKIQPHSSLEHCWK

## O=C(O)C(=O)O.O=C(c1ccccc1)c1ccccc1OCCCCCCN1CCCCCC1 [Compound 31, (2-((6-(Azepan-1-yl)hexyl)oxy)phenyl)(phenyl)methanone hydrogen oxalate]
Human H3R
  Ki: 0.162 µM
hMAO B
  inhibition at 1 µM: 5%
[1]
  selectivity eqBuChE versus eeAChE: selective eqBuChE inhibitors
  IC50: 0.317 ± 0.003 µM
[2]
  inhibition at 10 µM: 11%

## CC1CCCN(CCCCCCOc2ccc(C(=O)c3ccc(Cl)cc3)cc2)C1 (stereo not shown) [Compound 20, (4-Chlorophenyl) (4-((6-(3-methylpiperin-1-yl)hexyl)oxy)phenyl)methanone hydrogen oxalate]
Human H3R; [3]
  Ki: 0.044 µM
hMAO B
  inhibition at 1 µM: 17%
[1]
  IC50: 2.52 ± 0.031 µM
[2]
  IC50: 2.74 ± 0.098 µM

## O=C(c1ccc(F)cc1)c1ccc(OCCCCCN2CCCCCC2)cc1 [Compound 30, (4-Fluorophenyl) (4-((5-(azepan-1-yl)pentyl)oxy)phenyl)methanone hydrogen oxalate]
Human H3R
  Ki: 0.013 µM
hMAO B
  inhibition at 1 µM: 30%
[1]
  IC50: 0.224 ± 0.003 µM
[2]
  IC50: 1.11 ± 0.003 µM

## CC1CCCN(CCCCCCOc2ccccc2C(=O)c2ccccc2)C1.O=C(O)C(=O)O (stereo not shown) [Compound 17, (2-((6-(3-Methylpiperidin-1-yl)hexyl)oxy)phenyl)(phenyl)methanone hydrogen oxalate]
Human H3R
  Ki: 0.152 µM
hMAO B
  inhibition at 1 µM: 8%
[1]
  selectivity eqBuChE versus eeAChE: selective eqBuChE inhibitors
  IC50: 2.5 ± 0.028 µM
[2]
  inhibition at 10 µM: 20%

## O=C(c1ccccc1)c1cccc(OCCCCCN2CCCCCC2)c1 [Compound 27, (3-((5-(Azepan-1-yl)pentyl)oxy)phenyl)(phenyl)methanone hydrogen oxalate]
Human H3R
  Ki: 0.307 µM
hMAO B
  inhibition at 1 µM: 14%
[1]
  IC50: 0.901 ± 0.01 µM
[2]
  IC50: 3.66 ± 0.092 µM

## O=C(c1ccccc1)c1ccc(OCCCCCN2CCCCC2)cc1 [Compound 4, Phenyl (4-((5-(piperidin-1-yl)pentyl)oxy)phenyl)methanone hydrogen oxalate]
hMAO B
  inhibition at 1 µM: 44%
[1]
  IC50: 2.48 ± 0.04 µM
[2]
  inhibition at 10 µM: 41%

## CC1CCN(CCCCCCOc2cccc(C(=O)c3ccccc3)c2)CC1 [Compound 24, (3-((6-(4-Methylpiperidin-1-yl)hexyl)oxy)phenyl)(phenyl)methanone hydrogen oxalate]
Human H3R
  Ki: 0.106 µM
hMAO B
  inhibition at 1 µM: 20%
[1]
  IC50: 1.06 ± 0.043 µM
[2]
  IC50: 2.46 ± 0.07 µM

## O=C(c1ccc(Cl)cc1)c1ccc(OCCCCCCN2CCCCCC2)cc1 [Compound 34, (4-Chlorophenyl)(4-((6-(azepan-1-yl)hexyl)oxy)phenyl)methanone hydrogen oxalate]
Human H3R
  Ki: 0.133 µM
hMAO B
  inhibition at 1 µM: 30%
[1]
  IC50: 0.867 ± 0.002 µM
[2]
  IC50: 2.033 ± 0.018 µM

## O=C(O)C(=O)O.O=C(c1ccccc1)c1ccccc1OCCCCCCN1CCCCC1 [Compound 7, (2-((6-(Piperidin-1-yl)hexyl)oxy)phenyl)(phenyl)methanone hydrogen oxalate]
Human H3R
  Ki: 0.161 µM
hMAO B
  inhibition at 1 µM: 12%
[1]
  selectivity eqBuChE versus eeAChE: selective eqBuChE inhibitors
  IC50: 2.11 ± 0.032 µM
[2]
  inhibition at 10 µM: 3%

## CC1CCCN(CCCCCOc2cccc(C(=O)c3ccccc3)c2)C1 (stereo not shown) [Compound 13, (3-((5-(3-Methylpiperidin-1-yl)pentyl)oxy)phenyl)(phenyl)methanone hydrogen oxalate]
Human H3R
  Ki: 0.078 µM
hMAO B
  inhibition at 1 µM: 8%
[1]
  IC50: 3.42 ± 0.078 µM
[2]
  IC50: 3.79 ± 0.104 µM

## CC1CCCN(CCCCCOc2ccc(C(=O)c3ccc(F)cc3)cc2)C1 (stereo not shown) [Compound 16, (4-Fluorophenyl) (4-((5-(3-methylpiperidin-1-yl)pentyl)oxy)phenyl)methanone hydrogen oxalate]
Human H3R
  Ki: 0.012 µM
hMAO B
  inhibition at 1 µM: 20%
[1]
  IC50: 0.311 ± 0.006 µM
[2]
  IC50: 2.023 ± 0.006 µM

## O=C(c1ccc(Cl)cc1)c1ccc(OCCCCCN2CCCCC2)cc1 [Compound 5, (4-Chlorophenyl) (4-((5-(piperidin-1-yl)pentyl)oxy)phenyl)methanone hydrogen oxalate]
Human H3R
  Ki: 0.02 µM
hMAO B
  inhibition at 1 µM: 18%
[1]
  IC50: 1.68 ± 0.017 µM
[2]
  IC50: 2.87 ± 0.071 µM

## CC1CCN(CCCCCOc2ccc(C(=O)c3ccccc3)cc2)CC1 [Compound 23, (4-((5-(4-Methylpiperidin-1-yl)pentyl)oxy)phenyl)(phenyl)methanone hydrogen oxalate]
Human H3R
  Ki: 0.067 µM
hMAO B
  inhibition at 1 µM: 27%
[1]
  IC50: 1.57 ± 0.035 µM
[2]
  IC50: 2.6 ± 0.072 µM

## O=C(c1ccccc1)c1cccc(OCCCCCN2CCCCC2)c1 [Compound 3, Phenyl (3-((5-(piperidin-1-yl)pentyl)oxy)phenyl)methanone hydrogen oxalate]
Human H3R
  Ki: 0.21 µM
hMAO B
  inhibition at 1 µM: 15%
[1]
  IC50: 4.01 ± 0.067 µM
[2]
  IC50: 7.75 ± 0.329 µM

## CC1CCN(CCCCCOc2cccc(C(=O)c3ccccc3)c2)CC1 [Compound 22, (3-((5-(4-Methylpiperidin-1-yl)pentyl)oxy)phenyl)(phenyl)methanone hydrogen oxalate]
Human H3R
  Ki: 0.298 µM
hMAO B
  inhibition at 1 µM: 32%
[1]
  IC50: 1.7 ± 0.046 µM
[2]
  IC50: 4.45 ± 0.094 µM

## CC1CCCN(CCCCCCOc2ccc(C(=O)c3ccc(F)cc3)cc2)C1 (stereo not shown) [Compound 21, (4-Fluorophenyl) (4-(6-(3-methylpiperin-1-yl)hexyloxy)phenyl)methanone hydrogen oxalate]
Human H3R; [3]
  Ki: 0.075 µM
hMAO B
  inhibition at 1 µM: 23%
[1]
  IC50: 2.56 ± 0.04 µM
[2]
  IC50: 2 ± 0.046 µM

## CC1CCCN(CCCCCOc2ccccc2C(=O)c2ccccc2)C1.O=C(O)C(=O)O (stereo not shown) [Compound 12, (2-((5-(3-Methylpiperidin-1-yl)pentyl)oxy)phenyl)(phenyl)methanone hydrogen oxalate]
Human H3R
  Ki: 0.208 µM
hMAO B
  inhibition at 1 µM: 9%
[1]
  selectivity eqBuChE versus eeAChE: selective eqBuChE inhibitors
  IC50: 1.61 ± 0.061 µM
[2]
  inhibition at 10 µM: 16%

## O=C(c1ccc(Cl)cc1)c1ccc(OCCCCCCN2CCCCC2)cc1 [Compound 10, (4-Chlorophenyl) (4-((6-(piperidin-1-yl)hexyl)oxy)phenyl)methanone hydrogen oxalate]
Human H3R
  Ki: 0.025 µM
hMAO B
  inhibition at 1 µM: 39%
[1]
  IC50: 2.46 ± 0.061 µM
[2]
  IC50: 2.67 ± 0.094 µM

## O=C(O)C(=O)O.O=C(c1ccccc1)c1ccccc1OCCCCCN1CCCCCC1 [Compound 26, (2-((5-(Azepan-1-yl)pentyl)oxy)phenyl)(phenyl)methanone hydrogen oxalate]
Human H3R
  Ki: 0.302 µM
hMAO B
  inhibition at 1 µM: 3%
[1]
  selectivity eqBuChE versus eeAChE: selective eqBuChE inhibitors
  IC50: 0.384 ± 0.008 µM
[2]
  inhibition at 10 µM: 24%

## Clc1ccc(CCCOCCCN2CCCCC2)cc1 [pitolisant, reference compound]
[2]
  inhibition at 10 µM: 3%

## O=C(c1ccc(F)cc1)c1ccc(OCCCCCCN2CCCCC2)cc1 [Compound 11, (4-Fluorophenyl) (4-((6-(piperidin-1-yl)hexyl)oxy)phenyl)methanone hydrogen oxalate]
Human H3R
  Ki: 0.026 µM
hMAO B
  inhibition at 1 µM: 28%
[1]
  IC50: 0.419 ± 0.002 µM
[2]
  IC50: 3.098 ± 0.009 µM

## CC1CCCN(CCCCCOc2ccc(C(=O)c3ccc(Cl)cc3)cc2)C1 (stereo not shown) [Compound 15, (4-Chlorophenyl) (4-((5-(3-methylpiperin-1-yl)pentyl)oxy)phenyl)methanone hydrogen oxalate]
Human H3R; [3]
  Ki: 0.037 µM
hMAO B
  inhibition at 1 µM: 19%
[1]
  IC50: 2.56 ± 0.05 µM
[2]
  IC50: 2.65 ± 0.087 µM

## O=C(O)C(=O)O.O=C(c1ccccc1)c1ccccc1OCCCCCN1CCCCC1 [Compound 2, Phenyl (2-((5-(piperidin-1-yl)pentyl)oxy)phenyl)methanone hydrogen oxalate]
Human H3R
  Ki: 0.371 µM
hMAO B
  inhibition at 1 µM: 23%
[1]
  selectivity eqBuChE versus eeAChE: selective eqBuChE inhibitors
  IC50: 1.61 ± 0.06 µM
[2]
  inhibition at 10 µM: 22%

## O=C(c1ccc(F)cc1)c1ccc(OCCCCCCN2CCCCCC2)cc1 [Compound 35, (4-((6-(Azepan-1-yl)hexyl)oxy)phenyl)(4-fluorophenyl)methanone hydrogen oxalate]
Human H3R
  Ki: 0.035 µM
hMAO B
  inhibition at 1 µM: 24%
[1]
  IC50: 0.161 ± 0.004 µM
[2]
  IC50: 1.654 ± 0.004 µM

## O=C(c1ccc(Cl)cc1)c1ccc(OCCCCCN2CCCCCC2)cc1 [Compound 29, (4-Chlorophenyl)(4-(5-(azepan-1-yl)pentyloxy)phenyl)methanone hydrogen oxalate]
Human H3R
  Ki: 0.066 µM
hMAO B
  inhibition at 1 µM: 26%
[1]
  IC50: 0.676 ± 0.003 µM
[2]
  IC50: 2.24 ± 0.035 µM

## CC1CCN(CCCCCCOc2ccc(C(=O)c3ccccc3)cc2)CC1 [Compound 25, (4-((6-(4-Methylpiperidin-1-yl)hexyl)oxy)phenyl)(phenyl)methanone hydrogen oxalate]
Human H3R
  Ki: 0.053 µM
hMAO B
  inhibition at 1 µM: 22%
[1]
  IC50: 1.56 ± 0.05 µM
[2]
  IC50: 2.69 ± 0.047 µM
